Measured values taken from ChEMBL document CHEMBL5463729, “Data for DCP probe BAY 1753011” (2023).

Assays:
Details in all cases: Compound concentration 10.0 uM
[1] = biological target: Tau-tubulin kinase 2 (Homo sapiens) (UniProt Q6IQ55); assay: Inhibition of TTBK2(h) at 10.0 µM in the Eurofins Kinase panel
[2] = biological target: Serine/threonine-protein kinase 32B (Homo sapiens) (UniProt Q9NY57); assay: Inhibition of STK32B(h) at 10.0 µM in the Eurofins Kinase panel
[3] = biological target: Phosphorylase b kinase gamma catalytic chain, testis/liver isoform (Homo sapiens) (UniProt P15735); assay: Inhibition of PhKgamma2(h) at 10.0 µM in the Eurofins Kinase panel
[4] = biological target: Serine/threonine-protein kinase Nek3 (Homo sapiens) (UniProt P51956); assay: Inhibition of NEK3(h) at 10.0 µM in the Eurofins Kinase panel
[5] = biological target: Serine/threonine-protein kinase NLK (Homo sapiens) (UniProt Q9UBE8); assay: Inhibition of NLK (h) at 10.0 µM in the Eurofins Kinase panel
[6] = biological target: Serine/threonine-protein kinase tousled-like 2 (Homo sapiens) (UniProt Q86UE8); assay: Inhibition of TLK2(h) at 10.0 µM in the Eurofins Kinase panel
[7] = biological target: T1, 5-hydroxytryptamine receptor 1A (Homo sapiens) (UniProt P08908)
T1 sequence (whole entry): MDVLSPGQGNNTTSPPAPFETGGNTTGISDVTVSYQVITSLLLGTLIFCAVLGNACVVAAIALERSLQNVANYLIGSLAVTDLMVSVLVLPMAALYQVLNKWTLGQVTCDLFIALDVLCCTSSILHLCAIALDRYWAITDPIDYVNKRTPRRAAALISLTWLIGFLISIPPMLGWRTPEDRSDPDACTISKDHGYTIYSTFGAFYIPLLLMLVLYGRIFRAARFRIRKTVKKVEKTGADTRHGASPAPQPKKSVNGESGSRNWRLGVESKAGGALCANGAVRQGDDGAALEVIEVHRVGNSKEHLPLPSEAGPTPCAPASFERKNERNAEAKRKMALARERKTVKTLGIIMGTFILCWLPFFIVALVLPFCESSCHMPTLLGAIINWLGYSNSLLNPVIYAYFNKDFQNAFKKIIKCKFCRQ

[8] = biological target: Proto-oncogene tyrosine-protein kinase receptor Ret (Homo sapiens) (UniProt P07949); assay: Inhibition of Ret(h) at 10.0 µM in the Eurofins Kinase panel
[9] = biological target: T2, D(4) dopamine receptor (Homo sapiens) (UniProt P21917)
T2 sequence (whole entry): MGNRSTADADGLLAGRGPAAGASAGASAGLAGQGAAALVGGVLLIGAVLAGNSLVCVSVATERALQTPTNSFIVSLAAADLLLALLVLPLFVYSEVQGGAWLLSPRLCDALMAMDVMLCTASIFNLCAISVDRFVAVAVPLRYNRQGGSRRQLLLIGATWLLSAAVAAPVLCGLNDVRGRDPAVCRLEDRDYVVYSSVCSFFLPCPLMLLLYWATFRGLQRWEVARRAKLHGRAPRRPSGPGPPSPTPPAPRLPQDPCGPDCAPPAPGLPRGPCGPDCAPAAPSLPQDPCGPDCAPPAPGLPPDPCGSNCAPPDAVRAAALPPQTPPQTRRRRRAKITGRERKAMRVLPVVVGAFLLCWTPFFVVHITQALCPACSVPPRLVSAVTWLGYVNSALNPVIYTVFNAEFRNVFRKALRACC

[10] = biological target: Sodium-dependent noradrenaline transporter (Homo sapiens, UniProt P23975)
[11] = biological target: PAS domain-containing serine/threonine-protein kinase (Homo sapiens) (UniProt Q96RG2); assay: Inhibition of PASK(h) at 10.0 µM in the Eurofins Kinase panel
[12] = biological target: Estrogen receptor (Homo sapiens) (UniProt P03372)
[13] = biological target: Glutamate NMDA receptor (Rattus norvegicus) (UniProt P35439+Q00959+Q00960+Q00961+Q62645+Q8VHN2+Q9R1M7)
[14] = biological target: Muscarinic acetylcholine receptor M3 (Homo sapiens) (UniProt P20309)
[15] = biological target: Tribbles homolog 2 (Homo sapiens) (UniProt Q92519); assay: Inhibition of TRB2(h) at 10.0 µM in the Eurofins Kinase panel
[16] = biological target: D(1A) dopamine receptor (Homo sapiens) (UniProt P21728)
[17] = biological target: Serine/threonine-protein kinase ULK2 (Homo sapiens) (UniProt Q8IYT8); assay: Inhibition of ULK2(h) at 10.0 µM in the Eurofins Kinase panel
[18] = biological target: Mitogen-activated protein kinase 1 (Homo sapiens) (UniProt P28482); assay: Inhibition of MAPK1(h) at 10.0 µM in the Eurofins Kinase panel
[19] = biological target: Mu-type opioid receptor (Homo sapiens) (UniProt P35372)
[20] = biological target: Serine/threonine-protein kinase PAK 1 (Homo sapiens) (UniProt Q13153); assay: Inhibition of PAK1(h) at 10.0 µM in the Eurofins Kinase panel
[21] = biological target: CDC7/Cyclin B1 (Homo sapiens) (UniProt P14635+O00311); assay: Inhibition of Cdc7/cyclinB1(h) at 10.0 µM in the Eurofins Kinase panel; format: protein-complex assay
[22] = biological target: Serine/threonine-protein kinase LATS1 (Homo sapiens) (UniProt O95835); assay: Inhibition of LATS1(h) at 10.0 µM in the Eurofins Kinase panel
[23] = biological target: [Pyruvate dehydrogenase (acetyl-transferring)] kinase isozyme 4, mitochondrial (Homo sapiens) (UniProt Q16654); assay: Inhibition of PDHK4(h) at 10.0 µM in the Eurofins Kinase panel
[24] = biological target: 5-hydroxytryptamine receptor 2B (Homo sapiens) (UniProt P41595)
[25] = biological target: Ephrin type-A receptor 5 (Homo sapiens) (UniProt P54756); assay: Inhibition of EphA5(h) at 10.0 µM in the Eurofins Kinase panel
[26] = biological target: Mitogen-activated protein kinase 13 (Homo sapiens) (UniProt O15264); assay: Inhibition of SAPK4(h) at 10.0 µM in the Eurofins Kinase panel
[27] = biological target: Insulin receptor-related protein (Homo sapiens) (UniProt P14616); assay: Inhibition of IRR(h) at 10.0 µM in the Eurofins Kinase panel
[28] = biological target: Protein kinase C iota type (Homo sapiens) (UniProt P41743); assay: Inhibition of PKCiota(h) at 10.0 µM in the Eurofins Kinase panel
[29] = biological target: CDK18/Cyclin Y (Homo sapiens) (UniProt Q07002+Q8ND76); assay: Inhibition of CDK18/cyclinY(h) at 10.0 µM in the Eurofins Kinase panel; format: protein-complex assay

Sequence of Sodium-dependent noradrenaline transporter (P23975 whole entry, the tested form may be a part): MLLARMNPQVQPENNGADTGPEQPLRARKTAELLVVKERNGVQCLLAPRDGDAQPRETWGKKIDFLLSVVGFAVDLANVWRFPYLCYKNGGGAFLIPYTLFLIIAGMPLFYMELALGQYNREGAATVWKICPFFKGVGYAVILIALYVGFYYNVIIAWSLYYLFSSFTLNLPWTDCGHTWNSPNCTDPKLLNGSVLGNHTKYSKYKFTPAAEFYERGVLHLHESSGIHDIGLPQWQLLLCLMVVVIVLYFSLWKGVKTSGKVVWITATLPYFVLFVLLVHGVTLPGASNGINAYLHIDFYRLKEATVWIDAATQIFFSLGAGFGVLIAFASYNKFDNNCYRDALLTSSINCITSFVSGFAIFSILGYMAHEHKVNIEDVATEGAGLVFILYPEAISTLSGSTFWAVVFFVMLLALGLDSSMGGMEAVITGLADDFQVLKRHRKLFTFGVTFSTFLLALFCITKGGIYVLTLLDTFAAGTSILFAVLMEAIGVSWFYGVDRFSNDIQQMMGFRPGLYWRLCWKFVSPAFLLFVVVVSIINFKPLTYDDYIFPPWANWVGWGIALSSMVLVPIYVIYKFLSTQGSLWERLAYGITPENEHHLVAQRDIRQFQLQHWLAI
Sequence of 5-hydroxytryptamine receptor 2B (Homo sapiens) (P41595 whole entry): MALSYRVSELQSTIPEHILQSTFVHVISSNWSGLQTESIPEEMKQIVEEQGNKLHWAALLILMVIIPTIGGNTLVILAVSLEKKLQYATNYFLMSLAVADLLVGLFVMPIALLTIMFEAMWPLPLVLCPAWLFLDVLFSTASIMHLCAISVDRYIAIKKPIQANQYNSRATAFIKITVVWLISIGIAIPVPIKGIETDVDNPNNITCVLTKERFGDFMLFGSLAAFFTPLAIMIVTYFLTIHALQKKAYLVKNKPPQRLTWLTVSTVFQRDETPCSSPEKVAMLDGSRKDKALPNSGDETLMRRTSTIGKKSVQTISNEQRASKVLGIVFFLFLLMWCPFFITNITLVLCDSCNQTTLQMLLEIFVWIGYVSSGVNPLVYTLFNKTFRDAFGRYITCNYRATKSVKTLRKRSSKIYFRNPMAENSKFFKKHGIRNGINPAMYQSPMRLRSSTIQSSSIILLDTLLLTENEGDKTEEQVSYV
Sequence of Protein kinase C iota type (Homo sapiens) (P41743 whole entry): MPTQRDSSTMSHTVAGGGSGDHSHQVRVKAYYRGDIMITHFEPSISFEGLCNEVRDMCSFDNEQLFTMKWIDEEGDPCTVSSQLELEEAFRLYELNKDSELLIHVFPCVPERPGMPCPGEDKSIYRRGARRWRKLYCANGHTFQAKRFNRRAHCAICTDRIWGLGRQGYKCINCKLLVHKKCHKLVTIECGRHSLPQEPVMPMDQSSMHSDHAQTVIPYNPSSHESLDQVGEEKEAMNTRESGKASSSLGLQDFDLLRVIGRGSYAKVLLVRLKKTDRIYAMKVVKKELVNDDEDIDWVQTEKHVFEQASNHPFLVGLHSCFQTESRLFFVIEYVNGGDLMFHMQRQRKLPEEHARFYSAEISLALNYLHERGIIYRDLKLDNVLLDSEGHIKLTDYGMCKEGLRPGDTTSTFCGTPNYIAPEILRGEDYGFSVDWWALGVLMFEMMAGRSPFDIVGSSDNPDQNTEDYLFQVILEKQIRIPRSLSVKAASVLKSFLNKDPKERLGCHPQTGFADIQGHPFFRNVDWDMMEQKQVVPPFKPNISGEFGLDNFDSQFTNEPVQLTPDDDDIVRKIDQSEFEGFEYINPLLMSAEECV
Sequence of Mitogen-activated protein kinase 1 (Homo sapiens) (P28482 whole entry): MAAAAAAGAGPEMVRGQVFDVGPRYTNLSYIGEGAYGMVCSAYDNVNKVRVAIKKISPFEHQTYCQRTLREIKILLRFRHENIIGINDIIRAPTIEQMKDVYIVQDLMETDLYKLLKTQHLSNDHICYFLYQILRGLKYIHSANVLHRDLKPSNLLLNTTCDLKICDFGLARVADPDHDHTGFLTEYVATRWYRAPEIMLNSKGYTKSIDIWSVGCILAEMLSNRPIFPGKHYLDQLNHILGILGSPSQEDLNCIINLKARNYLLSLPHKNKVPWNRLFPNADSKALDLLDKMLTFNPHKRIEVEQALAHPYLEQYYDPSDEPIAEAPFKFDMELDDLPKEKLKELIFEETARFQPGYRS
Sequence of Estrogen receptor (Homo sapiens) (P03372 whole entry): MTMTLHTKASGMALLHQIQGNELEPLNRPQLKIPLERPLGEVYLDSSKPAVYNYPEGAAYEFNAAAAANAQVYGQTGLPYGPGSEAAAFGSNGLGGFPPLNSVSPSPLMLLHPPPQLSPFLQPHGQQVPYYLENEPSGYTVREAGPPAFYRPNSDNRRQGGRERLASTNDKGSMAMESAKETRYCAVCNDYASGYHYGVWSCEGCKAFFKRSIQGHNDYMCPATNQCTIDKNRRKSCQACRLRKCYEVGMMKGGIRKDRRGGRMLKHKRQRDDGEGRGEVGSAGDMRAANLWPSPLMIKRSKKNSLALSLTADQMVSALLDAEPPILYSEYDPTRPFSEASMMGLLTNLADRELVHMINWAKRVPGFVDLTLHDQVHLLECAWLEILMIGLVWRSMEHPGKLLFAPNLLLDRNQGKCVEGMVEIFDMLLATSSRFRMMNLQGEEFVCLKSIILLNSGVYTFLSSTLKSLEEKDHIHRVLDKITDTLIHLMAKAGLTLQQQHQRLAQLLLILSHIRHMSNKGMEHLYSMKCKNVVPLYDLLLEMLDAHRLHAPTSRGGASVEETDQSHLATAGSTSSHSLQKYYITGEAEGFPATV
Sequence of Serine/threonine-protein kinase Nek3 (Homo sapiens) (P51956 whole entry): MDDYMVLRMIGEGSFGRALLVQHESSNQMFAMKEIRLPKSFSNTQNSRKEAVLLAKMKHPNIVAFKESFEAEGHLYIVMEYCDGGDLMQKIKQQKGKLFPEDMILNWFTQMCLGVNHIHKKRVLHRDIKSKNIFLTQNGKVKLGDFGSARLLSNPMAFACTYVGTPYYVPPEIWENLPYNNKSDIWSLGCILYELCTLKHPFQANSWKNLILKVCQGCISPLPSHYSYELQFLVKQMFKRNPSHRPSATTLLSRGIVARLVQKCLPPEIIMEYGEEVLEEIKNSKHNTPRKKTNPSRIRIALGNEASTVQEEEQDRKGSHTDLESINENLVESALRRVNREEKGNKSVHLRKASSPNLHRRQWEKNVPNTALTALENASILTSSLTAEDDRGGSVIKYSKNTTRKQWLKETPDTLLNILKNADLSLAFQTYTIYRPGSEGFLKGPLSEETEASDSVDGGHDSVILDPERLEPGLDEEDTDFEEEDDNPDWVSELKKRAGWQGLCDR
Sequence of Insulin receptor-related protein (Homo sapiens) (P14616 27-742 limits assumed): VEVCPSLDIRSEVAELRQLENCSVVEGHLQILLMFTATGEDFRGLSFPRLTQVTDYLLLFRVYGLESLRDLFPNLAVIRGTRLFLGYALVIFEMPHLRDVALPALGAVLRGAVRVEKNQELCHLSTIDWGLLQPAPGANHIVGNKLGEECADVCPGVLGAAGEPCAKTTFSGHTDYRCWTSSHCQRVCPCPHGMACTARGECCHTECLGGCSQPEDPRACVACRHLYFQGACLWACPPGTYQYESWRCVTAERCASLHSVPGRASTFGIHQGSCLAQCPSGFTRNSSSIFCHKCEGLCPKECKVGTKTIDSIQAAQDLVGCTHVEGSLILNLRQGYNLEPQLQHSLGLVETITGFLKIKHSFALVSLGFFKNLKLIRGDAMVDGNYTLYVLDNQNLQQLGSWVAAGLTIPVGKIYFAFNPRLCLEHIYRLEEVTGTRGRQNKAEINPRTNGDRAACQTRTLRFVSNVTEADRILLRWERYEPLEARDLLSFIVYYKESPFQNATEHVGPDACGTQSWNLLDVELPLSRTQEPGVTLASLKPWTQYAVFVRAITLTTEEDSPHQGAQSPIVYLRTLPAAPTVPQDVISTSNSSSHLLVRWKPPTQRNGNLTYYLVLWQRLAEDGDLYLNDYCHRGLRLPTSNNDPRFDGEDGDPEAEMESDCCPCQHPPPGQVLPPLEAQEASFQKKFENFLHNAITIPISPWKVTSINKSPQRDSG
Sequence of Insulin receptor-related protein (Homo sapiens) (P14616 747-1297 limits assumed): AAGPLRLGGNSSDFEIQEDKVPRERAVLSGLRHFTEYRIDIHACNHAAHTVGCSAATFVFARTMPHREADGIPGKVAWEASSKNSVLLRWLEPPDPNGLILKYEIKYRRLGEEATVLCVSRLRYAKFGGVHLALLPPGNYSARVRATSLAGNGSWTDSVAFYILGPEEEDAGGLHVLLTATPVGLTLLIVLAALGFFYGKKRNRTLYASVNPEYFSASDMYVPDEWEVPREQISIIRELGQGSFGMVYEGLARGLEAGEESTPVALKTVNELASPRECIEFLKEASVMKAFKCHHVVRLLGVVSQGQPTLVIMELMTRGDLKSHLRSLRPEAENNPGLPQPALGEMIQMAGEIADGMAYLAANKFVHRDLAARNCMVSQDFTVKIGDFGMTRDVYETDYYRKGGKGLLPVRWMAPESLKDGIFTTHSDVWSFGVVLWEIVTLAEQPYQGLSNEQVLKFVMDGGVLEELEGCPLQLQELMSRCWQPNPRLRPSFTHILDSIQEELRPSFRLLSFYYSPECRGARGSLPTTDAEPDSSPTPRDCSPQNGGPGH
Sequence of Tribbles homolog 2 (Homo sapiens) (Q92519 whole entry): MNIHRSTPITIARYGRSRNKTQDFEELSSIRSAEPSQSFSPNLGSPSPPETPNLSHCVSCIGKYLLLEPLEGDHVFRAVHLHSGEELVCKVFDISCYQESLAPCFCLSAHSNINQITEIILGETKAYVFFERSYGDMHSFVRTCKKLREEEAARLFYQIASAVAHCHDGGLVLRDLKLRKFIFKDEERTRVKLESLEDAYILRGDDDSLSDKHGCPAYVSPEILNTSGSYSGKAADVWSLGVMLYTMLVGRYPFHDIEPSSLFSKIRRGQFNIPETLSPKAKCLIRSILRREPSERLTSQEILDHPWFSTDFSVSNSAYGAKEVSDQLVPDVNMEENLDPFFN

## O=c1n(Cc2cncn2-c2cccc(Cl)c2)nc(-c2ccc(Cl)cc2)n1C[C@H](O)C(F)(F)F
[1]
  inhibition: -2.08%
[2]
  inhibition: -7.15%
[3]
  inhibition: -3.49%
[4]
  inhibition: 5.44%
[5]
  inhibition: -1.74%
[6]
  inhibition: -6.55%
[7]
  inhibition: -1%
[8]
  inhibition: -9.37%
[9]
  inhibition: -4.7%
[10]
  inhibition: 11%
[11]
  inhibition: -0.36%
[12]
  inhibition: 4%
[13]
  inhibition: -4%
[14]
  inhibition: 4%
[15]
  inhibition: 3.48%
[16]
  inhibition: -6%
[17]
  inhibition: 1.8%
[18]
  inhibition: -0.83%
[19]
  inhibition: -6%
[20]
  inhibition: 5.16%
[21]
  inhibition: 3.68%
[22]
  inhibition: -2.66%
[23]
  inhibition: 5.68%
[24]
  inhibition: 7.98%
[25]
  inhibition: -7.8%
[26]
  inhibition: -3.8%
[27]
  inhibition: -9.92%
[28]
  inhibition: 0.21%
[29]
  inhibition: -1.75%

## C[C@H](O)c1nc(Cn2nc(-c3ccc(Cl)cc3)n(C[C@H](O)C(F)(F)F)c2=O)nn1-c1cccc(Cl)c1 [PECAVAPTAN]
[1]
  inhibition: -8.61%
[2]
  inhibition: -0.99%
[3]
  inhibition: 0.74%
[4]
  inhibition: 61%
[5]
  inhibition: -2.51%
[6]
  inhibition: -5.51%
[7]
  inhibition: -2%
[8]
  inhibition: -9.36%
[9]
  inhibition: 19.5%
[10]
  inhibition: 71.2%
[11]
  inhibition: -4.97%
[12]
  inhibition: 8%
[13]
  inhibition: -10%
[14]
  inhibition: 8%
[15]
  inhibition: -2.41%
[16]
  inhibition: 1%
[17]
  inhibition: 5.09%
[18]
  inhibition: 7.33%
[19]
  inhibition: 24%
[20]
  inhibition: 5.15%
[21]
  inhibition: 9.78%
[22]
  inhibition: -5.36%
[23]
  inhibition: 9.02%
[24]
  inhibition: 13.1%
[25]
  inhibition: -3.72%
[26]
  inhibition: -3.83%
[27]
  inhibition: 0.47%
[28]
  inhibition: -3.93%
[29]
  inhibition: 2.34%
